Measured values published in ChEMBL document CHEMBL1149068, “Comparison of the anti-herpes simplex virus activities of propolis and 3-methyl-but-2-enyl caffeate” (1994).

Legend:
Assay type in all cases: functional
Human alphaherpesvirus 1 [1] = assay: Antiviral activity against HSV1 H29S in african green monkey Vero cells assessed as log reduction in viral titers after 1 multiple round of replication at 6.25 ug/ml after 72 hrs
Human alphaherpesvirus 1 [2] = assay: Antiviral activity against HSV1 H29S in african green monkey Vero cells assessed as log reduction in viral titers after 1 multiple round of replication at 12.5 ug/ml after 72 hrs
Human alphaherpesvirus 1 [3] = assay: Antiviral activity against HSV1 H29S in african green monkey Vero cells assessed as log reduction in viral titers after 1 multiple round of replication at 25 ug/ml after 72 hrs
Human alphaherpesvirus 1 [4] = assay: Antiviral activity against HSV1 H29S in african green monkey Vero cells assessed as log reduction in viral titers after 1 multiple round of replication at 50 ug/ml after 72 hrs
Human alphaherpesvirus 1 [5] = assay: Antiviral activity against HSV1 H29S in african green monkey Vero cells assessed as log reduction in viral titers after 0.001 multiple round of replication at 12.5 ug/ml after 72 hrs
Human alphaherpesvirus 1 [6] = assay: Antiviral activity against HSV1 H29S in african green monkey Vero cells assessed as log reduction in viral titers after 0.001 multiple round of replication at 25 ug/ml after 72 hrs
Human alphaherpesvirus 1 [7] = assay: Antiviral activity against HSV1 H29S in african green monkey Vero cells assessed as log reduction in viral titers after 0.001 multiple round of replication at 50 ug/ml after 72 hrs
Human alphaherpesvirus 1 [8] = assay: Antiviral activity against HSV1 H29S in african green monkey Vero cells assessed as log reduction in viral titers after 0.001 multiple round of replication at 6.25 ug/ml after 72 hrs
Human alphaherpesvirus 1 [9] = assay: Antiviral activity against HSV1 H29S in african green monkey Vero cells assessed as reduction in viral DNA synthesis after 1 multiple round of replication at 30 ug/ml after 18 hrs by agarose gel electrophoresis relative to control
Human alphaherpesvirus 1 [10] = assay: Antiviral activity against HSV1 H29S in african green monkey Vero cells assessed as reduction in viral DNA synthesis after 1 multiple round of replication at 60 ug/ml after 18 hrs by agarose gel electrophoresis relative to control
Influenza A virus = assay: Antiviral activity against influenza A virus Hong Kong assessed as reduction in viral titers of reproduction at 100 ug/ml

| Compound | Activity (Human alphaherpesvirus 1 [1]) | Activity (Human alphaherpesvirus 1 [2]) | Activity (Human alphaherpesvirus 1 [3]) | Activity (Human alphaherpesvirus 1 [4]) | Activity (Human alphaherpesvirus 1 [5]) | Activity (Human alphaherpesvirus 1 [6]) | Activity (Human alphaherpesvirus 1 [7]) | Activity (Human alphaherpesvirus 1 [8]) | fold change (FC) (Human alphaherpesvirus 1 [9]) | fold change (FC) (Human alphaherpesvirus 1 [10]) | Selectivity Index (Influenza A virus) |
| --- | --- | --- | --- | --- | --- | --- | --- | --- | --- | --- | --- |
| CC(C)=CCOC(=O)/C=C/c1ccc(O)c(O)c1 (stereo in doubt; form 1) [PRENYL CAFFEATE] | 1 | 1.5 | 2.5 | 2.5 | 1.1 | 2 | 3.1 | – | – | – | – |
| CC(C)=CCOC(=O)/C=C/c1ccc(O)c(O)c1 (stereo in doubt; form 2) [PRENYL CAFFEATE] | 1.75 | 2.5 | 2.8 | 2.8 | 1.25 | 3.25 | 3.6 | 0.6 | 8 | 32 | – |
| Nc1nc2c(ncn2COCCO)c(=O)[nH]1 [ACYCLOVIR] | – | – | – | – | 3 | 3 | 3.25 | 2 | – | – | – |
| COc1cc(/C=C/C(=O)OCCC(C)C)ccc1O [ISOPENTYL FERULATE] | – | – | – | – | – | – | – | – | – | – | 8 |
